Data from patent US20140378408A1, “NUCLEOSIDE 5'-PHOSPHOROTHIOATE ANALOGUES AND USES THEREOF” (BAR-ILAN UNIVERSITY, an Israeli University, priority 2012, published 2014).
pIC50: −log10 of the molar value. Entries after “also recorded” stand apart in the source; their conditions may differ. Like-named read-outs stand apart in the source and are kept apart here.

Key:
TNAP = biological target: T1, TNAP (Homo sapiens, UniProt P05186); experiment: Inhibition of TNAP; type: biochemical
T1 sequence (P05186 18-501): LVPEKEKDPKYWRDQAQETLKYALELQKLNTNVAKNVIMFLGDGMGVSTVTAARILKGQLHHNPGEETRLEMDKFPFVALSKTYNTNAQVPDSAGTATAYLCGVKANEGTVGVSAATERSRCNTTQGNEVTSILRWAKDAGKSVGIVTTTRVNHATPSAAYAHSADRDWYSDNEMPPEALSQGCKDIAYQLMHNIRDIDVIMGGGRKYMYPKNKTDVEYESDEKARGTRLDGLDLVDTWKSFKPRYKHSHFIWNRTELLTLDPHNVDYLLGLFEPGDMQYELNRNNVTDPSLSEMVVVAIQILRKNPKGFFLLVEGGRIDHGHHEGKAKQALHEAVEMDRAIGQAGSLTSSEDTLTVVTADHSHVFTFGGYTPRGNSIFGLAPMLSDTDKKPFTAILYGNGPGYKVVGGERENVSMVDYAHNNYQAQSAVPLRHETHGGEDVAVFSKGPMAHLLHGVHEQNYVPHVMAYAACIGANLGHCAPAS

human chondrocyte cells = experiment: Hydrolysis of extracellular ATP in the presence of human chondrocyte culture; type: cell-based; conditions: 100 μM each, 8 h, ATP alone 56%, without cells 18%
Protocol: In this study, the metabolic hydrolysis of ATP was evaluated. […] Following incubation, the samples were collected and heated at 80° C. for 15 min and extracted with chloroform, applied onto an anion exchange cartridge, and freeze-dried. The resulting residue was analyzed by HPLC.

[1] = Stability in human blood serum; type: in vitro ADME
[2] = Metabolic stability in mouse brain, liver and blood homogenates (HPLC); type: in vitro ADME, mice; conditions: 37° C., up to 180 min
Protocol: In order to use APCPP-γ-S as a neuroprotectant agent and test its activity in an animal model, we first evaluated the metabolic stability of APCPP-γ-S in several tissues such as liver, brain and blood. In this assay we took samples from mice brain, liver and blood. The tissue samples were homogenated by sonication and split to 0.5 ml aliquots. Each sample was mixed with 0.1 mg of APCPP-γ-S and incubated at 37° C. for 10, 30, 90 and 180 min. After incubation, the samples were collected and extracted with chloroform at 1:1 v/v ratio. The aqueous layer was removed and freeze-dried. Samples were loaded onto an activated Starta X-AW weak anion exchange cartridge, washed with H2O (1 ml) and eluted with MeOH:H2O (1:1, 1 ml) followed by NH4OH:MeOH:H2O (2:25:73, 1 ml), and then freeze-dried. The resulting residue was analyzed by HPLC. […] Each analysis cycle was set to 30 minutes. The chromatographic flow was monitored at 260 nm and integrated using EZChrom Elite Software.

primary neurons = experiment: Protection of primary neuron culture against Aβ42 insult (trypan blue count); type: cell-based; conditions: Primary neuron
Protocol: Primary neuron cells were cultured in 96 wells plate (95×10^4 per well). After 24 h the cells were treated with 50 μM Aβ42 and various concentrations of APCPP-γ-S (0.04-25 μM) for 48 h. Cell viability was measured by dyeing the cells with trypan blue and counts of the vital cells. The results shown are the mean±S.D of three independent experiments in triplicate (*P<0.05, vs. Aβ42 treatment).
Primary neurons cells were cultured in 96 wells plate (95×10^4 per well). […] Cell viability was measured by dyeing the cells with trypan blue and counts the vital cells. The results shown are the mean±S.D of three independent experiments in triplicate (*P<0.05, **P<0.01 vs. Aβ42 treatment).
In this study, the neuroprotective activity of APCPP-γ-S in neuronal cells exposed to toxic Aβ42 was evaluated. At first we measured the number of the viable neuronal cells after treatment with Aβ42 (5-50 μM) (FIG. 11). At 50 μM Aβ42, 50% of the neuronal culture remained vital. Next, we measured the protective effect of APCPP-γ-S: primary neurons were treated with APCPP-γ-S (0.04-25 μM) and 50 μM Aβ42 for 48 h.

Aβ40-Zn^2+ aggregates = biological target: T2, Aβ40-Zn^2+ aggregates (Homo sapiens, UniProt P05067); experiment: TEM, size reduction of Aβ40-Zn^2+ aggregates; conditions: 6 eq, 7 h; aggregates 100 nm to 2.5 μm before
T2 construct: purchased GL-Biochem (Shanghai)
T2 sequence (P05067 672-711 limits assumed): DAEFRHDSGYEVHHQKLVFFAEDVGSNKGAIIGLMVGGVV
Protocol: TEM sample was prepared from 200 μM Aβ-M^2+ 1:1 solution (pH 7.4 or 6.6 for Aβ40-Zn^2+ or Aβ40-Cu^2+, respectively) incubated in a rotary shaker for 9 days at RT. A cloudy mixture with massive sediments was obtained. TEM samples were prepared by diluting the stock solutions with PBS to a concentration of 25 μM with or without APCPP-γ-S. In this way four samples were obtained: (i) 25 μM Aβ40-Cu^2+; (ii) 25 μM Aβ40-Cu^2+ containing 150 μM APCPP-γ-S; (iii) 25 μM Aβ40-Zn^2+; and (iv) 25 μM Aβ40-Zn^2+ containing 150 μm APCPP-γ-S. The mixtures were incubated in a rotary shaker for 7 h and after vortexing, a sample was transferred to a gold grid, for Aβ40-Cu^2+, or a copper grid for Aβ40-Zn^2+. The wet grid was left to dry at RT overnight.
To validate the DLS data indicating the efficiency of APCPP-γ-S, we monitored the dissolution of Aβ40-M^2+ aggregates in the presence of APCPP-γ-S by TEM. Aβ40-Cu^2+ and Aβ40-Zn^2+ 1:1 complexes were incubated for 9 days at RT, resulting in a significant sediment. Aβ40-Cu^2+ aggregates of 2.5 μm in diameter (FIG. 6A) and Aβ40-Zn^2+ aggregates of different sizes from 100 nm to 2.5 μm (FIG. 6C) were observed by TEM measurements. APCPP-γ-S (6 eq) was then added and the mixture was incubated for 7 h.

[3] = Pharmacokinetics and BBB permeation after IV injection in mice; type: in vivo, F1 (C57B×S29) mice
Protocol: As shown in Example 14, APCPP-γ-S is stable in human blood serum as well as in brain, liver and blood from mice. In this study, we evaluated APCPP-γ-S blood-brain barrier (BBB) permeability and pharmacokinetics in F1 (C57B×S29) mice. APCPP-γ-S was injected intravenously (IV) at 40 mg/Kg into four mice (each mouse was injected with 1.5 mg of APCPP-γ-S). The mice were sacrificed after 30 minutes (2 of the 4) or 90 minutes (thr other 2 of the 4), and samples from brain and blood were taken to analysis. Each sample was collected into 0.5 ml saline, sonicated and extracted with chloroform, applied onto an anion exchange cartridge, and freeze-dried. The resulting residue was analyzed by HPLC. We detected the presence of 67.5 and 64% of the injected amount of APCPP-γ-S in the blood samples after 30 and 90 minutes, respectively. In the brain sample we obtained ca. 2% permeability (data not shown).

SMILES	inhibition of TNAP (TNAP; 100 μM) [%]	degradation of ATP on co-application (human chondrocyte cells) [%]	stability in human blood serum [1]	metabolic stability in brain, liver and blood [2]	pIC50 (primary neurons; 48 h, read-out: concentration that maintained 50% of neuronal cells)	pIC50 (primary neurons; read-out: IC50 protection from Aβ42 insult)	inhibition at 100 µM (TNAP) [%]	aggregate size after addition (Aβ40-Zn^2+ aggregates)	injected amount present in blood ([3]; IV 40 mg/Kg, after 30 minutes) [%]	permeability into brain ([3]; IV 40 mg/Kg, brain sample)	injected amount present in blood ([3]; IV, after 90 minutes) [%]
Nc1ncnc2c1ncn2[C@@H]1O[C@H](COP(O)(=S)OP(=O)(O)C(Cl)(Cl)P(=O)(O)O)[C@@H](O)[C@H]1O (single isomer, unassigned; isomer a) [APPCCl2P-α-S (isomer A), adenosine 5′-[Pα-thio]-β,γ-(dichloromethylene)triphosphate]	17	22									
Nc1ncnc2c1ncn2[C@@H]1O[C@H](COP(=O)(O)CP(=O)(O)OP(O)(O)=S)[C@@H](O)[C@H]1O [APCPP-γ-S, adenosine 5′-[Pγ-thio]-α,β-methylenetriphosphate]			stable	no significant degradation after 3 h; also recorded: could be detected even after 180 min	6.70	6.70	8	less than 500 nm	67.5	ca. 2%	64
